Legend:
[1] = Acute toxicity (LD50), intraperitoneal, mice (Example 6, Table 4); type: in vivo, 6 week old female albino mice; conditions: i.p.; for Estimated LD50 dose: mice
Text: The toxicity of these mixtures (LD50) are compared with the toxicity of poly I alone and the double-stranded complex between poly I and poly C (poly I:C). The mixtures contained poly ho^5 C containing 62% ho^5 CMP and 38% br^5 CMP obtained by bromine water treatment of poly C as described in example 1. Some of this material was frozen in the absence of salt to produce a gelled material when thawed. This material was homogenised and mixed with an equal weight of poly I and then administered intraperitoneally to the mice. Some of the poly ho^5 C is kept unfrozen and mixed with poly I and then administered intraperitoneally to the mice.
Poly I:C was made up in HBS at 5mg. 8mg, 10mgs and 13mg/ml and 0.1ml
injected per mouse to give the total doses shown.
Poly I was made up in HBS at 12mg/ml and appropriate volumes administered
to give the final doses indicated.
in HBS to a total polynucleotide concentration of 12mg/ml and appropriate
volumes administered to give the final doses indicated.
No deaths occurred after 7 days (records maintained 2 months) and mean

[2] = particularly by virtue of its ability to induce interferon; cited from earlier work

Substance	Survival of mice per group ([1]; 8 mg total polynucleotides)	Survival of mice per group ([1]; 12 mg total polynucleotides)	Survival of mice per group ([1]; 16 mg total polynucleotides)	Survival of mice per group ([1]; 24 mg total polynucleotides)	Estimated LD50 dose [1]	Estimated LD50 dose ([1]; mean weight 23 g)	anti-viral effects [2]	Survival of mice per group ([1]; 0.5 mg total polynucleotides)	Survival of mice per group ([1]; 0.8 mg total polynucleotides)	Survival of mice per group ([1]; 1.0 mg total polynucleotides)	Survival of mice per group ([1]; 1.3 mg total polynucleotides)
polyinosinic acid [poly I]	5/6	5/6	3/6	1/6	16 mg/mouse	695 mg/kilogram	–	–	–	–	–
poly I:C	–	–	–	–	1.1 mg/mouse	48 mg/kilogram	known to have anti-viral effects	10/10	8/10	6/10	0/10
